According to patent US20180303807A1, “ANDROGEN RECEPTOR LIGANDS” (DUKE UNIVERSITY, priority 2015, published 2018):

How the values were obtained:
Format in all cases: cell-based
AR [1] = assay: Real-time PCR of AR target gene transcription in LNCaP-AR (AR overexpressing) cells, CRPC model; design: key to B5 = Relative antagonist activity (plus 0.1 nM R1881) of test compounds (20 μM) in AR overexpressing LNCaP cells (NKX3.1 AR target gene) / B7 = Relative antagonist activity (plus 0.1 nM R1881) of test compounds (20 μM) in AR overexpressing LNCaP cells (PSA AR target gene): a score of 1 indicates higher antagonist efficacy (highly desired activity) than benchmark compound enzalutamide; a score of 2 indicates equal antagonist efficacy to enzalutamide (desirable); a score of 3 indicates antagonist efficacy between enzalutamide and bicalutamide (less desirable activity); a score of 4 indicates antagonist efficacy equal to bicalutamide (liability); a score of 5 indicates antagonist efficacy worse than bicalutamide (liability); key to B4 = Relative agonist activity (no R1881) of test compounds (20 μM) in AR overexpressing LNCaP cells (NKX3.1 AR target gene) / B6 Relative agonist activity (no R1881) of test compounds (20 μM) in AR overexpressing LNCaP cells (PSA AR target gene): a score of 1 indicates less agonism (highly desired activity) than benchmark compound enzalutamide; a score of 2 indicates equal agonism to enzalutamide (desirable); a score of 3 indicates agonism between enzalutamide and bicalutamide (less desirable activity); a score of 4 indicates equal agonism to bicalutamide (liability); a score of 5 indicates higher agonism than bicalutamide (liability); settings: 20 μM, score vs enzalutamide/bicalutamide; for B4 = Relative agonist activity (no R1881) of test compounds (20 μM) in AR overexpressing LNCaP cells (NKX3.1 AR target gene): no R1881, NKX3.1 gene; for B5 = Relative antagonist activity (plus 0.1 nM R1881) of test compounds (20 μM) in AR overexpressing LNCaP cells (NKX3.1 AR target gene): plus 0.1 nM R1881, NKX3.1 gene; for B7 = Relative antagonist activity (plus 0.1 nM R1881) of test compounds (20 μM) in AR overexpressing LNCaP cells (PSA AR target gene): plus 0.1 nM R1881, PSA gene
Method: Real-Time PCR (CRPC model of AR overexpressing prostate cancer cells, Table 2, B4-B7). LNCaP-AR (AR overexpressing cells) cells were seeded in 12-well plates in RPMI 1640 (8% charcoal-stripped fetal calf serum (CFS)). […] AR target gene transcription (PSA, NKX3.1, FKBP5) was assessed by realtime PCR.
For B4-B7, scoring system is based on the relative AR target gene agonist/antagonist activity of test compounds when compared to benchmark compounds enzalutamide or bicalutamide. […] The lack of agonist activity is desirable for therapies intended to treat CRPC. For B4 and B6, a score of 1 indicates less agonism (highly desired activity) than benchmark compound enzalutamide, a score of 2 indicates equal agonism to enzalutamide (desirable), a score of 3 indicates agonism between enzalutamide and bicalutamide (less desirable activity), a score of 4 indicates equal agonism to bicalutamide (liability), and a score of 5 indicates higher agonism than bicalutamide (liability). For B5 and B7 a score of 1 indicates higher antagonist efficacy (highly desired activity) than benchmark compound enzalutamide, a score of 2 indicates equal antagonist efficacy to enzalutamide (desirable), a score of 3 indicates antagonist efficacy between enzalutamide and bicalutamide (less desirable activity), a score of 4 indicates antagonist efficacy equal to bicalutamide (liability), and a score of 5 indicates antagonist efficacy worse than bicalutamide (liability) For B9, Compounds that degrade AR (greater than 50% degradation at 10 μM) are indicated.

CV1 cells = assay: Toxicity of test compound in the CV1 reporter gene assay (Renilla-Luc)
Method: Reporter Gene Assay (IC50 determination, Table 2, B1-B3). CV1 cells were seeded into 96-well cell culture plates and transfected with Lipofectin. For AR transcriptional assays, the DNA mixture consisted of pcDNA-AR, MMTV-Luc (androgen responsive reporter gene), and Renilla-Luc (for assessing transfection efficiency and toxicity). Following overnight incubation, cells were induced with hormone (0.1 nM R1881 (synthetic AR agonist) plus increasing concentrations of test compound) for 24 hrs. Cells were lysed and luciferase activity was quantified using Dual Luciferase Reagent (DLR). IC50 determination was assessed using GraphPad Prism software.

AR [2] = target: T1, AR (Homo sapiens, UniProt P10275); assay: Reporter gene assay, AR transcriptional (MMTV-Luc) in CV1 cells; settings: pcDNA-AR + MMTV-Luc, 0.1 nM R1881 plus test compound, 24 hrs, read-out: B1 = AR transcriptional IC50 (μM) in CV1 cells
T1 construct: expressed in transfected cells; host or cells: CV1 cells
T1 sequence (P10275 1-920): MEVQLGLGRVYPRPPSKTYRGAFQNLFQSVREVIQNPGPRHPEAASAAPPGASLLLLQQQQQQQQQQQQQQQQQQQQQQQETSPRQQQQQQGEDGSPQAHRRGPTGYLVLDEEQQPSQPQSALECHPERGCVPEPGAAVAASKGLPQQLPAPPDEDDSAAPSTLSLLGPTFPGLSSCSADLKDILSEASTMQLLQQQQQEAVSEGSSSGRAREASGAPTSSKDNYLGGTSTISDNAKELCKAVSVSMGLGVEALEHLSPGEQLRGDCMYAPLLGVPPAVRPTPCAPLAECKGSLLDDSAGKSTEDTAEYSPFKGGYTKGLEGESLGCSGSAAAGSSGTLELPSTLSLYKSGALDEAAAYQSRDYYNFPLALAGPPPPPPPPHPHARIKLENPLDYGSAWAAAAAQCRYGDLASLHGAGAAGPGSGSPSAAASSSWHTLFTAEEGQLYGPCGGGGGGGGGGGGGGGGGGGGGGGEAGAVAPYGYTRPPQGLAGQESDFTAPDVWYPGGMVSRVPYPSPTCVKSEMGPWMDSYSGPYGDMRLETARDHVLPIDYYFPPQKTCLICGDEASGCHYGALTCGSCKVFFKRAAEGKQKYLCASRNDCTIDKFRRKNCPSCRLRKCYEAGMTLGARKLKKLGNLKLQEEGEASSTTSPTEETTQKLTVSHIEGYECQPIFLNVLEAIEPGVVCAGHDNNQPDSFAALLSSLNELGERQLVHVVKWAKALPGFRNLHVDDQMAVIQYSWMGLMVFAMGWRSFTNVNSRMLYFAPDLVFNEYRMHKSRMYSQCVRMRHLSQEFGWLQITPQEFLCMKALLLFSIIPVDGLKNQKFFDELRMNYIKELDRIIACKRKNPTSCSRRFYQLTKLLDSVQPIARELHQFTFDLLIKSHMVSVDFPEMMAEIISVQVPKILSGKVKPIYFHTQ
Outline: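 CV1 cells transiently co-transfected with human AR, MMTV-Luc reporter and Renilla-Luc (transfection efficiency and toxicity read-out), then stimulated 24 h with 0.1 nM R1881 plus increasing test compound concentrations. Firefly and Renilla luciferase quantified by dual-luciferase assay; IC50 derived from concentration-response.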

Structure (SMILES)	B4 = Relative agonist activity (no R1881) of test compounds (20 μM) in AR overexpressing LNCaP cells (NKX3.1 AR target gene) (AR [1])	B6 Relative agonist activity (no R1881) of test compounds (20 μM) in AR overexpressing LNCaP cells (PSA AR target gene) (AR [1])	B5 = Relative antagonist activity (plus 0.1 nM R1881) of test compounds (20 μM) in AR overexpressing LNCaP cells (NKX3.1 AR target gene) (AR [1])	B7 = Relative antagonist activity (plus 0.1 nM R1881) of test compounds (20 μM) in AR overexpressing LNCaP cells (PSA AR target gene) (AR [1])	B2 = % Toxicity of test compound (20 μM) (CV1 cells) [%]	B3 = % Toxicity of test compound (60 μM) (CV1 cells) [%]	IC50 (AR [2]) [µM]
CC1(C)CC(=O)C2=C(C1)Nc1ccc3ccccc3c1C2c1ccncc1 (centres unmarked) [Compound A12]	1	1	2	3	0	94	8.6
N#Cc1ccc(C2C3=C(CCCC3=O)Nc3ccc4ccccc4c32)cc1 (centres unmarked) [Compound A22]		3		3	0	66	> 10
CC1(C)CC(=O)C2=C(C1)Nc1ccc3ccccc3c1C2c1cccc(C(F)(F)F)c1 (centres unmarked) [Compound A9]	1	1	1	1	0	0	5.5
CC1(C)CC(=O)C2=C(C1)Nc1ccc3ccccc3c1C2c1ccc(Cl)c([N+](=O)[O-])c1 (centres unmarked) [Compound A6]	1	1	1	1	0	0	3.8
CC1(C)CC(=O)C2=C(C1)Nc1ccc3ccccc3c1C2c1ccc(C#N)cc1 (centres unmarked) [Compound A3]	1	1	1	1	0	24	1.6
O=C1CCCC2=C1C(c1ccc(Cl)cc1Cl)c1c(ccc3ccccc13)N2 (centres unmarked) [Compound A7]	1	1	2	1	75	91	3.8
O=C1CCCC2=C1C(c1ccc([N+](=O)[O-])cc1)c1c(ccc3ncccc13)N2 (centres unmarked) [Compound A18]		1		2	0	22	> 10
CC1(C)CC(=O)C2=C(C1)Nc1ccc3ncccc3c1C2c1ccc([N+](=O)[O-])cc1 (centres unmarked) [Compound A2, 9,9-dimethyl-12-(4-nitrophenyl)-8,9,10,12-tetrahydrobenzo[b][4,7]phenanthrolin-11(7H)-one]				1	0	51	0.2
Cn1c(=O)n(C)c2cc(C3C4=C(CC(C)(C)CC4=O)Nc4ccc5ccccc5c43)ccc21 (centres unmarked) [Compound A8]	2	1	1	1	0	0	5.3
